Source: patent US9260461B2, “Water-soluble derivatives and prodrugs of acacetin and methods of making and using thereof” (Versitech Limited, priority 2014, dated 2016)
Values after ≈ are worked out from the molar mass of the structure shown.

What was measured:
[1] = target: T1, Kv4.3 current (hKv4.3 gene expressed in HEK 293 cells) (Homo sapiens, UniProt Q9UK17); test: Whole-cell patch-clamp, Kv4.3 current in HEK 293 cells; format: cell-based; conditions: 30 μM, representative cells
T1 construct: expressed in transfected cells
T1 sequence (Q9UK17 1-655): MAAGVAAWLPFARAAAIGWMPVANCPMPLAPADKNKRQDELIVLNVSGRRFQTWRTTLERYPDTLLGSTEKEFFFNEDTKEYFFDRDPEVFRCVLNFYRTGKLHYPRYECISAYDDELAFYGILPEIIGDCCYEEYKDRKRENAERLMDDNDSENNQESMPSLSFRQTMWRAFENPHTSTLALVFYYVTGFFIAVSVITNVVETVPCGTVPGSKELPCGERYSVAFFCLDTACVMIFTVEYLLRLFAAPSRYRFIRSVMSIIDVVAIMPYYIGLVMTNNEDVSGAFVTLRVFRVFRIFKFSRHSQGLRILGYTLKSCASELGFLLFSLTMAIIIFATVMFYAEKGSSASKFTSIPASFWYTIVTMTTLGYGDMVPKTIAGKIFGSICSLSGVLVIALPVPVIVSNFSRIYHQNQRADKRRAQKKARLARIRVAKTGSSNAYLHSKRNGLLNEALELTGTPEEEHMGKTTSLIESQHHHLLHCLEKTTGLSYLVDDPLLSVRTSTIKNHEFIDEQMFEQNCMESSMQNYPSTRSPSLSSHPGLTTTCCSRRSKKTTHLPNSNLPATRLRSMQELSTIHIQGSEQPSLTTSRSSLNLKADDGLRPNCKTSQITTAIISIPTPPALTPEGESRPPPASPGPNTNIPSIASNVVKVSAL
Procedure: (§1) HEK 293 cell line stably expressing the hKV1.5 gene (Wu et al., 2011) or hKv4.3 gene (Wu et al., 2013) was maintained in Dulbecco's modified eagle's medium (DMEM, Invitrogen, Hong Kong) supplemented with 10% fetal bovine serum and 400 μg/mL G418 in a 5% CO2 incubator. Cells were seeded on a glass cover slip for electrophysiology recording.
(§2) Ionic currents in HEK 293 cell lines and rat atrial myocytes were measured by the standard whole-cell patch-clamp technique using a standard pipette and bath solution with an EPC-10 amplifier and Pulse software (HEKA, Lambrecht, Germany). A 3M KCl-agar salt bridge was used as the reference electrode. The current signal was sampled at 5 kHz, recorded and stored in the hard disk of an IBM compatible computer. All experiments were conducted at room temperature (22-23° C.).
(§3) However, Kv1.5 current (FIG. 3D), Kv4.3 current (FIG. 3E) or IKACh (FIG. 3F) was inhibited by 10 μM acacetin in representative cells consistent with experimental reports.

[2] = target: T2, Kv1.5 current (hKV1.5 gene expressed in HEK 293 cells) (Homo sapiens, UniProt P22460); test: Whole-cell patch-clamp, Kv1.5 current in HEK 293 cells; format: cell-based; conditions: 30 μM, representative cells
T2 construct: expressed in transfected cells
Procedure: as §1, §2, §3

[3] = In vivo conversion of prodrugs to acacetin, HPLC of blood samples from anesthetized rats; set-up: species or system SD rats
Procedure: Male SD rats (250-300 g) was anesthetized with phenobarbital (30 mg/kg, i.p.), and the jugular vein and femoral vein were cannulated for drug administration and blood sample collection. Tracheal cannulation was also performed for ventilation. Drug (20 mg/kg) was administrated for 30-60 min, and blood samples (˜0.2 mL) were collected before and at 5, 15, 30, 60, 90, and 120 min after drug administration using ascorbic acid and EDTA-preserved microcentrifuge tubes (1.5 mL) for HPLC (high-performance liquid chromatography) analysis of acacetin conversion.
The samples were stored in a −80° C. freezer until HPLC analysis for acacetin content. Except for the double blanks, pentamethylquercetin (500 ng/mL) was used for concentration calibration. The analysis was carried out on a Waters HPLC system (Milford, Mass.) equipped with an Alltech column (C18, 250 mm×4.6 mm i.d., 5 μm, Grace, Deerfield, Ill.). The mobile phase consisted of 45% acetonitrile in 1% of acetic acid. The UV detector was set at a single wavelength of 260 nm. The lower limit of quantification was 50 ng/mL.
The in vivo conversion of water-soluble prodrug A was determined in anesthetized SD rats. Prodrug A (20 mg/kg i.v.) was infused for 30-60 min, and levels of the parent compound acacetin in blood plasma were determined by HPLC analysis.

[4] = test system: myocardial infarction induced by ischemia-reperfusion; test: Ventricular infarct area (TTC staining) in anesthetized rats with ischemia-reperfusion; format: in vivo; conditions: 10 mg/kg i.v.; n=4, P<0.01 vs vehicle
[5] = Solubility of the purified prodrugs versus parent compound acacetin; format: physicochemical; conditions: aqueous buffer; Tris solution, pH=7.0; read-out: solubility in Tris solution
Source text: Prodrug B: Light yellow solid. Yield 54%. C16H11O7PNa2 (408.21). EI-MS: m/z 387.04 [M+H—Na]^+. ^1H NMR (400 MHz, DMSO-d6): δ=12.90 (s, 1H), 8.04 (d, J=8.8 Hz, 2H), 7.10 (d, J=8.8 Hz, 2H), 7.02 (s, 1H), 6.98 (s, 1H), 6.60 (s, 1H), 3.89 (s, 3H) ppm.

T2 sequence (P22460 whole entry): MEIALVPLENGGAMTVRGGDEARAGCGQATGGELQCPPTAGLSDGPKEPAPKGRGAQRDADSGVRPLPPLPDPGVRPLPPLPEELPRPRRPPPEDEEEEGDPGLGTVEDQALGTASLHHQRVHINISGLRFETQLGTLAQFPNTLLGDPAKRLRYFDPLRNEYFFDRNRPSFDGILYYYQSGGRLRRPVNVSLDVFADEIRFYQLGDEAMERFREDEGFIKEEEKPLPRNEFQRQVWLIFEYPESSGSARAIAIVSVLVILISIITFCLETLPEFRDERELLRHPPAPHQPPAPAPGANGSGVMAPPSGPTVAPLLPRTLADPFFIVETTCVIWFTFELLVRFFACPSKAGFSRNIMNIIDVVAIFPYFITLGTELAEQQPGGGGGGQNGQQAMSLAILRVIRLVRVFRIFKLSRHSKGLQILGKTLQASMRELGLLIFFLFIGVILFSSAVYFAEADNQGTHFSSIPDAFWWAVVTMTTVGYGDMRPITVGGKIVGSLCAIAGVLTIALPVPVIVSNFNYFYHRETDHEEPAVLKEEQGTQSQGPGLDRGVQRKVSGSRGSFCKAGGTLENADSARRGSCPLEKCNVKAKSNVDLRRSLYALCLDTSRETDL

Question: Which “effect on Kv4.3 current” value [1] does the source give for `COc1ccc(-c2cc(=O)c3c(O)cc(OP(=O)(O)O)cc3o2)cc1` [Prodrug A] here?
Answer: The value was “no inhibitory effect”.

Question: And the “effect on Kv1.5 current” value [2]?
Answer: Its value is “no inhibitory effect”.

Question: What about the “concentrations of acacetin at different time-points after prodrug administration” value [3] of the same compound?
Answer: Its value is “can reach therapeutic concentrations”.

Question: And the ventricular infarct area [4]?
Answer: Its ventricular infarct area is “reduced”.

Question: What about the solubility [5] of the same compound?
Answer: The solubility was 10000 µg/mL (≈ 27.5 mM).
